The source of these data is patent US6977180B2, “Biosensor” (Duke University, priority 2001, dated 2005).

A short description of test [1]: solution ligand binding by intrinsic tryptophan fluorescence of the conjugates, glucose. The following applies: read-out: fKd(glucose), dissociation constant of the protein free in solution. The method, then:
FIGS. 4A–4D. Ligand-mediated electrochemical responses of four electroactive biomolecular assemblies. Inserts show the current responses observed at different ligand concentrations, measured by scanning the potential at a constant frequency. FIG. 4A. G174C-MBP (1 kHz; ^eKd(maltose)=4 μM; ^fKd(maltose)=1 μM), FIG. 4B. L255C-GBP (0.1 kHz; ^eKd(glucose)=2.0 μM; ^fKd(glucose)=0.4 μM), FIG. 4C. G174C-eZBP, a redesigned variant of MBP that binds zinc (1 kHz; ^eKd (zinc)=10 μM; ^fKd(zinc)=3 μM), FIG. 4D. E163C-QBP (0.16 kHz; ^eKd(glutamine)=1.0 μM; ^fKd(glutamine)=0.2 μM. Two binding constants are reported: ^eKd is dissociation constant of the assembly, determined electrochemically; ^fKd is the dissocation constant of the protein free in solution, determined by measuring changes in the intrinsic tryptophan fluorescence of the conjugates. (For every protein presented, the ligand-binding affinities determined electrochemically using a disk gold electrode are 2–5 fold weaker than those in solution. However, if a gold microelectrode prepared by flame annealing a gold wire (Creager et al, Anal. Chem. 70:4257 (1998)) is used instead of a gold disk electrode, the electrochemically determined affinities are similar to the solution affinities.
Protein purification and labeling. […]

A short description of test [2]: electrochemical (ac voltammetry) ligand binding of protein-modified gold electrode, glucose. The following applies: gold disk electrode, 0.1 kHz, read-out: eKd(glucose), dissociation constant of the assembly, determined electrochemically. The method, then:
FIGS. 4A–4D. Ligand-mediated electrochemical responses of four electroactive biomolecular assemblies. Inserts show the current responses observed at different ligand concentrations, measured by scanning the potential at a constant frequency. FIG. 4A. G174C-MBP (1 kHz; ^eKd(maltose)=4 μM; ^fKd(maltose)=1 μM), FIG. 4B. L255C-GBP (0.1 kHz; ^eKd(glucose)=2.0 μM; ^fKd(glucose)=0.4 μM), FIG. 4C. G174C-eZBP, a redesigned variant of MBP that binds zinc (1 kHz; ^eKd (zinc)=10 μM; ^fKd(zinc)=3 μM), FIG. 4D. […]
Electrochemistry. […] Ac current baselines were calculated by linear extrapolation between equidistant potentials from the observed midpoint reduction potential (˜220 mV), as reported previously (Creager et al, Anal. Chem. 70:4257–4263 (1998)). […]

Consider “L255C-GBP: glucose-binding protein mutant L255C carrying the Ru(II) redox reporter”, for which the Kd in test [1] is 0.4 µM; in test [2], 2 µM.
